According to patent publication US6131226A, “1,4-dihydropyridine compounds as bradykinin antagonists” (Pfizer Inc., priority 1996, dated 2000):

Tested on: bradykinin-induced plasma leakage in rat urinary bladder
Experiment: bradykinin-induced plasma leakage test in rat urinary bladder
Type: in vivo
Settings: test compound at a concentration of 1.5 μM, i.v. 3 ml/kg, bradykinin 10 nmol/kg i.v.
Procedure: The bradykinin antagonist activity of the dihydropyridine compounds in vivo is evaluated by a plasma leakage test. This test essentially involve determining the concentration of the individual compound required to reduce by 50% the amount of bradykinin-induced plasma leakage in rat urinary bladder, thereby affording characteristic ED50 values for each compounds tested.
More specifically, the assay is carried out as follows. 3.5-week old male Sprague-Dawlew rats are purchased from Charles River Japan Inc. The rats are fed on stock diet (CRF from Charles River Japan, Inc.) and maintained under the standard conditions (temperature, 23±1° C. and humidity 55±5%) for at least 3 days. The rats are fasted overnight prior to the experiments. Each test group consists of 5 rats. […]
Captopril (5 mg/kg of body weight) is intraperitoneally (i.p.) injected to the rats, and 20 min later the rats are anesthetized by an administration of Nembutal (Abbott) ([…] of body weight). […] The absorbance of the extract is measured spectrophotometrically at 605 nm to determined the dye concentration. The effect of the individual test compound is calculated as a percentage of the amount of Evans blue leaked into the urinary bladder as compared to the control (saline for the test compounds).

SMILES: COC(=O)C1=C(CCc2ccccc2OC)NC(CC(=O)N2CCN(C3CC4CCC(C3)N4C)CC2)=C(C(=O)OC)C1c1c(Cl)cccc1Cl (stereo not shown) [dimethyl 4-(2,6-dichlorophenyl)-6-[2-(2-methoxyphenyl)ethyl]-2-[4-(8-methyl-8-azabicyclo[3.2.1]oct-3-yl)-1-piperazinyl]carbonylmethyl-1,4-dihydropyridine-3,5-dicarboxylate]
- inhibition of urinary bladder leakage (Evans blue): did not show significant in vivo activity
